The source of these data is PubChem BioAssay (NCI).

The structures appear in SMILES notation.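 Assay format: 96-well plates, 48-hour exposure. GI50 is the concentration that inhibits growth by half. TGI is the concentration that stops growth completely.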

Experiment in all cases: DTP human tumour cell line panel, 48 h
Assay [1] relates to 786-0 renal.
For assay [2], the system named is SF-295 CNS.
Assay [3] concerns SK-MEL-2 melanoma.
Assay [4] relates to OVCAR-4 ovarian.
For assay [5], the system named is RXF 393 renal.
Assay [6] deals with SR leukemia.
Assay [7] deals with CAKI-1 renal.
Assay [8] deals with DU-145 prostate.
The test system of assay [9] is MCF7 breast.
Assay [10] relates to T-47D breast.

For the molecule `CCCCC(C(=O)CCC(=O)Nc1ccc(Cl)cc1)C(=O)C(C)C` (stereo unspecified), the TGI in [1], in assay [2], in assay [3], in [4], in assay [5] and in assay [6] was more than 100 µM each time. Further, the TGI (in general, the concentration giving total growth inhibition) in assay [7] is more than 100 µM.
With `ClCCCCOC1CCCCO1` (stereo unspecified), the TGI in [1], in [2], in assay [3], in [4], in assay [5] and in assay [7] was more than 100 µM each time.
Turning to `Cc1ccc(S(=O)(=O)CC2(Br)CCc3ccccc3C2=O)cc1` (stereo unspecified), the TGI in assay [1] was more than 100 µM; in assay [2] it was more than 100 µM; in assay [3], 44.9 µM; in [4], 50 µM; in [8], more than 100 µM; in assay [5], 39 µM. For the same molecule, the TGI in assay [7] turned out to be 53.4 µM; in [9], 85.9 µM.
As for `COc1cc(/C=C/c2ccccn2)cc(OC)c1OC`, the TGI in [1], in assay [2], in assay [3], in assay [4], in assay [10] and in assay [8] was more than 10 µM each time. Besides, the TGI in [5], in assay [7] and in assay [9] was more than 10 µM throughout.
On to `CC(C)COC(c1ccc2c(c1)OCO2)C(C)Br` (stereo unspecified), for which the TGI in assay [1] was 62.3 µM; in assay [2], 53.6 µM; in [3] it was 44.3 µM; in assay [4], more than 100 µM; in assay [8], more than 100 µM; in assay [5] it was 23.2 µM. Moreover, the concentration for total growth inhibition (TGI) in [6] was 46.1 µM; in [7], more than 100 µM; in assay [9], 86.9 µM.
With `COc1c(C)c(O)c2c(c1C)OC(c1ccccc1)CC2=O` (stereo unspecified), the TGI was more than 100 µM in [1]; more than 100 µM in assay [2]; 74.1 µM in assay [3]; more than 100 µM in assay [4]; 75.5 µM in [6]; more than 100 µM in [7].
Regarding `Nc1nc2ncn(CC(O)COC(=O)c3ccccc3)c2c(=O)[nH]1` (stereo unspecified), the TGI in assay [1], in assay [2], in assay [3], in [4], in assay [5] and in assay [6] was more than 100 µM throughout. In [7], this molecule displayed a concentration for total growth inhibition (TGI) of more than 100 µM.
Turning to `COC(=O)/C(=N/NC(C)(C)C)C(C(=O)OC)C(=O)C(=O)Nc1nc2ccc([N+](=O)[O-])cc2s1` (stereo unspecified), the TGI in assay [1], in assay [2], in [3], in assay [4], in assay [6] and in [7] was more than 100 µM throughout.
As to `Nc1ccc(C(=O)Nc2ccccc2N)cc1`, the TGI is more than 100 µM in [1]; more than 100 µM in [2]; more than 86.1 µM in [3]; more than 76.5 µM in assay [4]; more than 100 µM in assay [8]; more than 100 µM in assay [5]. Besides, the TGI in [6], in assay [7] and in [9] was more than 100 µM in each case.
`O=C(O)COc1ccc(C(=O)/C(SS/C(C(=O)c2ccc(OCC(=O)O)c(Cl)c2Cl)=C2\C=C(c3ccccc3Cl)SS2)=C2/C=C(c3ccccc3Cl)SS2)c(Cl)c1Cl`: the TGI in [1] is 36.7 µM; in assay [2], more than 100 µM; in assay [3], 50 µM; in assay [4], 57.1 µM; in assay [6], 6.91 µM; in assay [7], more than 94.7 µM.
As for `Cc1[nH]n(-c2cccc(Cl)c2)c(=O)c1/C=C1\C=c2ccccc2=CC1=O`, the GI50 (commonly the concentration at which growth is held to half of that of the control) in assay [1] is 21.5 µM; in [2] it was 23.2 µM; in assay [3], 21.8 µM; in [4] it was more than 100 µM; in assay [10], more than 100 µM; in [8] it was 70 µM. Also, the GI50 in [7] is more than 100 µM. Moreover, the TGI in assay [1] was 86.6 µM; in [2], more than 100 µM; in [3], 70.2 µM; in assay [4], more than 100 µM; in assay [10], more than 100 µM; in assay [8], more than 100 µM. This molecule displayed a TGI in [7] of more than 100 µM.
Regarding `COC(=O)C1(O)c2ccccc2N=C2C1CCN2C` (stereo unspecified), the TGI in [1], in assay [2], in assay [3], in [4], in assay [5] and in [6] was more than 100 µM throughout. In addition, the TGI in [7] was more than 100 µM.
Consider `O=C1N=C(Nc2nc(-c3csc(NC4=NC(=O)/C(=C\c5ccc(Cl)cc5)S4)n3)cs2)S/C1=C/c1ccc(Cl)cc1`, for which the GI50 in assay [1] was 1.6 µM; in assay [2], 17.4 µM; in [3], more than 50 µM; in assay [10], 18.8 µM; in [8] it was 17 µM; in [5] it was 11.6 µM. The GI50 in assay [7] was 20 µM; in assay [9], 3.97 µM. For the same molecule, the TGI in assay [1] is 12 µM; in assay [2] it was more than 50 µM; in assay [3], more than 50 µM; in assay [10] it was more than 50 µM; in assay [8], more than 50 µM; in assay [5] it was more than 50 µM. The TGI in assay [7] and in [9] was more than 50 µM in each case.
For the molecule `Fc1ccc(-c2nn3c(COc4ccc(Cl)cc4Cl)nnc3s2)cc1Oc1ccccc1`, the GI50 is 14 µM in [1]; 6.2 µM in assay [2]; 24.6 µM in assay [4]; 11.6 µM in assay [10]; 19.2 µM in assay [8]; 18.7 µM in [5]. In addition, the figures for the GI50 in assay [7] and in [9] were 12.8 µM and 67.1 µM, respectively. The TGI in [1] was 26.9 µM; in assay [2] it was 20 µM; in [4], more than 100 µM; in assay [10], 25.7 µM; in assay [8], 42.5 µM; in assay [5], 45.9 µM. The TGI was 25.4 µM in assay [7] and more than 100 µM in assay [9].
